Measured values: patent publication US4211772A, “Benzopyran glycoside acetals and ketals” (Laboratoires Sarget, priority 1977, dated 1980)
Like-named read-outs stand apart in the source and are kept apart here.

Assays:
Solubilities in water = assay type: physicochemical; details: water; read-out: Solubilities in water
Aldose Reductase = molecular target: T1, Aldose Reductase (Bos taurus, UniProt P16116); assay: Inhibition of aldose reductase in vitro (enzyme from beef eye lenses, glyceraldehyde substrate); assay type: biochemical; details: in DMF solution, read-out: percentages of inhibition (aldose reductase)
T1 construct: The enzyme is extracted from beef eye lenses; from tissue; host or cells: beef eye lenses
From the text: Inhibition of Aldose Reductase In Vitro
The reoxidation of NADPH coupled to the enzymatic reaction was followed spectrophotometrically at 340 nm.

carragenin edema = assay: Anti-inflammatory activity: carragenin edema test; assay type: in vivo; details: for % inhibition of carragenin edema: borate buffer pH 7, 24 h; for inhibition in vivo at 35 mg/kg / inhibition in vivo at 40 mg/kg / inhibition in vivo at 75 mg/kg / inhibition in vivo at 100 mg/kg / inhibition in vivo at 200 mg/kg: Rattus norvegicus, ip
Summary of the method: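 Male Wistar EOPS rats receive 0.1 ml of 5% carragenin suspension in physiological serum into the hind-paw metatarsal muscle, with test substance given i.p. in neutralized solution at the same time. Paw edema is measured by plethysmometry at several times after carragenin and reported as % inhibition against pH-matched physiological serum controls.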

capillary resistance = assay: Capillaroprotecting effects: capillary resistance; assay type: in vivo, male OFA EOPS rats
Protocol: (§1) Capillaroprotecting effects
The capillary resistance was determined by a variant of the method of Charlier et al, Arch. Inter. Physiol.

capillary permeability = assay: Capillaroprotecting effects: capillary permeability; assay type: in vivo, conventional male Wistar rats
Protocol: as §1
The capillary permeability was determined by the method of Charlier et al, Arch. Inter. Physiol.

For `C[C@@H]1O[C@@H](OC[C@H]2O[C@@H](Oc3c(-c4ccc(O)c(O)c4)oc4cc(O)cc(O)c4c3=O)[C@H](O)[C@@H](O)[C@@H]2O)[C@@H]2OC3(CCCCC3)O[C@@H]2[C@H]1O` [No. 6, 3-O-(2,3-O,O-cyclohexylidene-6-α-L-rhamnosyl-β-D-glucosyl)-quercitin], the solubility (Solubilities in water) was < 100 µg/mL, the inhibition at 100 µM (Aldose Reductase; 10^-4 mole/l) was 93% and the inhibition at 10 µM (Aldose Reductase; 10^-5 mole/l) was 66%. The inhibition at 1 µM (Aldose Reductase; 10^-6 mole/l) was 10%, the “% inhibition of carragenin edema” value (carragenin edema; 35 mg/kg i.p.) was 27% and the “% inhibition of carragenin edema” value (carragenin edema; 75 mg/kg i.p.) was 21%. The “% inhibition of carragenin edema” value (carragenin edema; 100 mg/kg i.p.) was 37%, the “% inhibition of carragenin edema” value (carragenin edema; 200 mg/kg i.p.) was 0% and the inhibition in vivo at 35 mg/kg (carragenin edema; 1 h, pH 7, read-out: % inhibition of carragenin edema, 35 mg/kg i.p., borate buffer pH 7, 1 h) was 32%. For the same compound, the inhibition in vivo at 35 mg/kg (carragenin edema; 1 h, pH 7, read-out: % inhibition of carragenin edema, 35 mg/kg i.p., borate buffer pH 7, 1 h 1/2) was 23%, the inhibition in vivo at 40 mg/kg (carragenin edema; 1 h, pH 7, read-out: % inhibition of carragenin edema, 40 mg/kg i.p., borate buffer pH 7, 1 h) was 23% and the inhibition in vivo at 40 mg/kg (carragenin edema; 1 h, pH 7, read-out: % inhibition of carragenin edema, 40 mg/kg i.p., borate buffer pH 7, 1 h 1/2) was 11%. For the same compound, the inhibition in vivo at 75 mg/kg (carragenin edema; 1 h, pH 7, read-out: % inhibition of carragenin edema, 75 mg/kg i.p., borate buffer pH 7, 1 h) was 9%, the inhibition in vivo at 75 mg/kg (carragenin edema; 1 h, pH 7, read-out: % inhibition of carragenin edema, 75 mg/kg i.p., borate buffer pH 7, 1 h 1/2) was 3% and the inhibition in vivo at 100 mg/kg (carragenin edema; 1 h, pH 7, read-out: % inhibition of carragenin edema, 100 mg/kg i.p., borate buffer pH 7, 1 h) was 20%. For the same compound, the inhibition in vivo at 100 mg/kg (carragenin edema; 1 h, pH 7, read-out: % inhibition of carragenin edema, 100 mg/kg i.p., borate buffer pH 7, 1 h 1/2) was 9%, the inhibition in vivo at 200 mg/kg (carragenin edema; 1 h, pH 7, read-out: % inhibition of carragenin edema, 200 mg/kg i.p., borate buffer pH 7, 1 h) was 19% and the inhibition in vivo at 200 mg/kg (carragenin edema; 1 h, pH 7, read-out: % inhibition of carragenin edema, 200 mg/kg i.p., borate buffer pH 7, 1 h 1/2) was 2%. The inhibition in vivo at 35 mg/kg (carragenin edema; 2 h, pH 7, read-out: % inhibition of carragenin edema, 35 mg/kg i.p., borate buffer pH 7, 2 h) was 33%, the inhibition in vivo at 40 mg/kg (carragenin edema; 2 h, pH 7, read-out: % inhibition of carragenin edema, 40 mg/kg i.p., borate buffer pH 7, 2 h) was 7% and the inhibition in vivo at 75 mg/kg (carragenin edema; 2 h, pH 7, read-out: % inhibition of carragenin edema, 75 mg/kg i.p., borate buffer pH 7, 2 h) was 14%. The inhibition in vivo at 100 mg/kg (carragenin edema; 2 h, pH 7, read-out: % inhibition of carragenin edema, 100 mg/kg i.p., borate buffer pH 7, 2 h) was 1%, the inhibition in vivo at 200 mg/kg (carragenin edema; 2 h, pH 7, read-out: % inhibition of carragenin edema, 200 mg/kg i.p., borate buffer pH 7, 2 h) was 4% and the inhibition in vivo at 35 mg/kg (carragenin edema; 3 h, pH 7, read-out: % inhibition of carragenin edema, 35 mg/kg i.p., borate buffer pH 7, 3 h) was 9%. The inhibition in vivo at 40 mg/kg (carragenin edema; 3 h, pH 7, read-out: % inhibition of carragenin edema, 40 mg/kg i.p., borate buffer pH 7, 3 h) was 2%, the inhibition in vivo at 75 mg/kg (carragenin edema; 3 h, pH 7, read-out: % inhibition of carragenin edema, 75 mg/kg i.p., borate buffer pH 7, 3 h) was 17% and the inhibition in vivo at 100 mg/kg (carragenin edema; 3 h, pH 7, read-out: % inhibition of carragenin edema, 100 mg/kg i.p., borate buffer pH 7, 3 h) was 2%. It also gave an inhibition in vivo at 200 mg/kg (carragenin edema; 3 h, pH 7, read-out: % inhibition of carragenin edema, 200 mg/kg i.p., borate buffer pH 7, 3 h) of 0%, an inhibition in vivo at 35 mg/kg (carragenin edema; 4 h, pH 7, read-out: % inhibition of carragenin edema, 35 mg/kg i.p., borate buffer pH 7, 4 h) of 7% and an inhibition in vivo at 40 mg/kg (carragenin edema; 4 h, pH 7, read-out: % inhibition of carragenin edema, 40 mg/kg i.p., borate buffer pH 7, 4 h) of 5%. The inhibition in vivo at 75 mg/kg (carragenin edema; 4 h, pH 7, read-out: % inhibition of carragenin edema, 75 mg/kg i.p., borate buffer pH 7, 4 h) was 0%, the inhibition in vivo at 100 mg/kg (carragenin edema; 4 h, pH 7, read-out: % inhibition of carragenin edema, 100 mg/kg i.p., borate buffer pH 7, 4 h) was 10% and the inhibition in vivo at 200 mg/kg (carragenin edema; 4 h, pH 7, read-out: % inhibition of carragenin edema, 200 mg/kg i.p., borate buffer pH 7, 4 h) was 8%. The inhibition in vivo at 35 mg/kg (carragenin edema; 5 h, pH 7, read-out: % inhibition of carragenin edema, 35 mg/kg i.p., borate buffer pH 7, 5 h) was 10%, the inhibition in vivo at 40 mg/kg (carragenin edema; 5 h, pH 7, read-out: % inhibition of carragenin edema, 40 mg/kg i.p., borate buffer pH 7, 5 h) was 2% and the inhibition in vivo at 75 mg/kg (carragenin edema; 5 h, pH 7, read-out: % inhibition of carragenin edema, 75 mg/kg i.p., borate buffer pH 7, 5 h) was 7%. For the same compound, the inhibition in vivo at 100 mg/kg (carragenin edema; 5 h, pH 7, read-out: % inhibition of carragenin edema, 100 mg/kg i.p., borate buffer pH 7, 5 h) was 15%, the inhibition in vivo at 200 mg/kg (carragenin edema; 5 h, pH 7, read-out: % inhibition of carragenin edema, 200 mg/kg i.p., borate buffer pH 7, 5 h) was 9% and the inhibition in vivo at 35 mg/kg (carragenin edema; 6 h, pH 7, read-out: % inhibition of carragenin edema, 35 mg/kg i.p., borate buffer pH 7, 6 h) was 14%. The inhibition in vivo at 40 mg/kg (carragenin edema; 6 h, pH 7, read-out: % inhibition of carragenin edema, 40 mg/kg i.p., borate buffer pH 7, 6 h) was 0%, the inhibition in vivo at 75 mg/kg (carragenin edema; 6 h, pH 7, read-out: % inhibition of carragenin edema, 75 mg/kg i.p., borate buffer pH 7, 6 h) was 13% and the inhibition in vivo at 100 mg/kg (carragenin edema; 6 h, pH 7, read-out: % inhibition of carragenin edema, 100 mg/kg i.p., borate buffer pH 7, 6 h) was 5%. For the same compound, the inhibition in vivo at 200 mg/kg (carragenin edema; 6 h, pH 7, read-out: % inhibition of carragenin edema, 200 mg/kg i.p., borate buffer pH 7, 6 h) was 1%, the inhibition in vivo at 35 mg/kg (carragenin edema; read-out: % inhibition of carragenin edema, 35 mg/kg i.p., borate buffer pH 7, 1/2 h) was 26% and the inhibition in vivo at 40 mg/kg (carragenin edema; read-out: % inhibition of carragenin edema, 40 mg/kg i.p., borate buffer pH 7, 1/2 h) was 28%. The inhibition in vivo at 75 mg/kg (carragenin edema; read-out: % inhibition of carragenin edema, 75 mg/kg i.p., borate buffer pH 7, 1/2 h) was 29%, the inhibition in vivo at 100 mg/kg (carragenin edema; read-out: % inhibition of carragenin edema, 100 mg/kg i.p., borate buffer pH 7, 1/2 h) was 23% and the inhibition in vivo at 200 mg/kg (carragenin edema; read-out: % inhibition of carragenin edema, 200 mg/kg i.p., borate buffer pH 7, 1/2 h) was 14%. The “% of animals for which the effect is ≥ 25 u cm Hg/h” value (“% of animals” below) (capillary resistance; 50 mg/kg i.p.) was 30%, the “capillary resistance, effect observed” value (capillary resistance; 50 mg/kg i.p.) was 19.75 ± 10.2 u cm Hg/h and the “% of animals” value (capillary resistance; 100 mg/kg i.p.) was 40%. The “capillary resistance, effect observed” value (capillary resistance; 100 mg/kg i.p.) was 25.5 ± 13.2 u cm Hg/h, the “% of animals” value (capillary resistance; 200 mg/kg i.p.) was 90% and the “capillary resistance, effect observed” value (capillary resistance; 200 mg/kg i.p.) was 37.75 ± 12.9 u cm Hg/h. For the same compound, the “percentage reduction of capillary permeability” value (from here on “percentage reduction”) (capillary permeability; 50 mg/kg i.p.) was 21%, the “percentage reduction” value (capillary permeability; 100 mg/kg i.p.) was 20% and the “percentage reduction” value (capillary permeability; 200 mg/kg i.p.) was 23%.
